# From paper PMC11845761, “Intestinal human carboxylesterase 2 (CES2) expression rescues drug metabolism and most metabolic syndrome phenotypes in global Ces2 cluster knockout mice” (Acta Pharmacologica Sinica, 2024)
# Marks after values point to notes of the source that are not given here.
# What was measured:
# [1] = irinotecan i.v. or orally administered; Ces2^–/– vs wild-type mice; data not shown
# [2] = Plasma pharmacokinetics of capecitabine and its metabolites after oral capecitabine in CES2-modified mice; assay type: in vivo, mouse; settings: oral capecitabine 500 mg/kg, plasma
# Method: (§1) For capecitabine 2-h experiments, 6–7 female mice received oral capecitabine (500 mg/kg, 10 μL/g), and tail vein blood samples were collected at 0.125, 0.25, 0.5 and 1 h after drug administration. For the vinorelbine 4-h experiment, 6-7 male mice received vinorelbine intravenously (10 mg/kg, 5 μL/g) or orally (10 mg/kg, 10 μL/g) using a blunt-ended needle. Tail vein blood samples were collected at 0.125, 0.25, 0.5, 1 and 2 h after drug administration. […] At the last time point in each experiment (2 or 4 h), mice were anesthetized with 5% isoflurane and blood was collected by cardiac puncture. […] Plasma was isolated from the blood by centrifugation at 9000 × g for 6 min at 4 °C, and the plasma fraction was collected and stored at −30 °C until analysis.
# (§2) Concentrations of capecitabine (and its metabolites) and vinorelbine (and its metabolite) in mouse plasma samples and organ homogenates were determined using two independent validated high-performance liquid chromatography-tandem mass spectrometry assays.
# (§3) Pharmacokinetic parameters were calculated by non-compartmental methods using the PK solver software. […] Differences were considered statistically significant when P < 0.05. All data are presented as mean ± SD.
# [3] = Tissue concentrations of capecitabine and its metabolites 2 h after oral capecitabine in CES2-modified mice; assay type: in vivo, mouse; settings: oral capecitabine 500 mg/kg
# Method: as §1, §2, §3
smiles,measurement,setting,value
CCc1c2c(nc3ccc(O)cc13)-c1cc3c(c(=O)n1C2)COC(=O)[C@]3(O)CC [SN-38],effect of mCes2 cluster knockout on plasma levels,[1],no significant effect
C[C@H]1O[C@@H](n2cc(F)c(=O)[nH]c2=O)[C@H](O)[C@@H]1O [5’-DFUR],AUC0-2h,[2]; female Ces2^–/– mice,30434 ± 12950 ng·h/mL
same,AUC0-2h ratio (metabolite/capecitabine),[2]; female Ces2^–/– mice,1.0 ± 0.9
same,Cmax,[2]; female Ces2^–/– mice,22886 ± 11936 ng/mL
same,Tmax,[2]; female Ces2^–/– mice,38.4 ± 14.4 min
same,AUC0-2h,[2]; female Ces2^–/–A mice,29452 ± 10370 ng·h/mL
same,AUC0-2h ratio (metabolite/capecitabine),[2]; female Ces2^–/–A mice,1.1 ± 0.3
same,Cmax,[2]; female Ces2^–/–A mice,21100 ± 8366 ng/mL
same,Tmax,[2]; female Ces2^–/–A mice,34.8 ± 12 min
same,AUC0-2h,[2]; female Ces2^–/–V mice,34477 ± 13143 ng·h/mL
same,AUC0-2h ratio (metabolite/capecitabine),[2]; female Ces2^–/–V mice,2.1 ± 0.4***^###^^^
same,Cmax,[2]; female Ces2^–/–V mice,23871 ± 8673 ng/mL
same,Tmax,[2]; female Ces2^–/–V mice,47.4 ± 16.2 min
same,AUC0-2h,[2]; female wild-type mice,27337 ± 6291 ng·h/mL
same,AUC0-2h ratio (metabolite/capecitabine),[2]; female wild-type mice,4.7 ± 0.9
same,Cmax,[2]; female wild-type mice,21133 ± 7207 ng/mL
same,Tmax,[2]; female wild-type mice,25.2 ± 7.8 min
same,CSI (small intestine tissue concentration),[3]; female Ces2^–/– mice,5099 ± 1783 ng/g
same,CSIC (small intestine contents concentration),[3]; female Ces2^–/– mice,3905 ± 2357 ng/g
same,Ccolon (colon concentration),[3]; female Ces2^–/– mice,4754 ± 3040 ng/g
same,Cliver (liver concentration),[3]; female Ces2^–/– mice,3447 ± 1643 ng/g
same,Colon concentration ratio (metabolite/capecitabine),[3]; female Ces2^–/– mice,0.34 ± 0.06
same,Liver concentration ratio (metabolite/capecitabine),[3]; female Ces2^–/– mice,0.21 ± 0.09
same,Small intestine concentration ratio (metabolite/capecitabine),[3]; female Ces2^–/– mice,0.32 ± 0.13
same,Small intestine contents concentration ratio (metabolite/capecitabine),[3]; female Ces2^–/– mice,0.036 ± 0.016
same,CSI (small intestine tissue concentration),[3]; female Ces2^–/–A mice,4632 ± 1545 ng/g
same,CSIC (small intestine contents concentration),[3]; female Ces2^–/–A mice,2689 ± 1092 ng/g
same,Ccolon (colon concentration),[3]; female Ces2^–/–A mice,3692 ± 793 ng/g
same,Cliver (liver concentration),[3]; female Ces2^–/–A mice,2628 ± 793 ng/g
same,Colon concentration ratio (metabolite/capecitabine),[3]; female Ces2^–/–A mice,0.42 ± 0.06
same,Liver concentration ratio (metabolite/capecitabine),[3]; female Ces2^–/–A mice,0.66 ± 0.37
same,Small intestine concentration ratio (metabolite/capecitabine),[3]; female Ces2^–/–A mice,0.33 ± 0.12
same,Small intestine contents concentration ratio (metabolite/capecitabine),[3]; female Ces2^–/–A mice,0.035 ± 0.025
same,CSI (small intestine tissue concentration),[3]; female Ces2^–/–V mice,3194 ± 1571 ng/g
same,CSIC (small intestine contents concentration),[3]; female Ces2^–/–V mice,2248 ± 905 ng/g
same,Ccolon (colon concentration),[3]; female Ces2^–/–V mice,5426 ± 27021.6 ng/g
same,Cliver (liver concentration),[3]; female Ces2^–/–V mice,2635 ± 1118 ng/g
same,Colon concentration ratio (metabolite/capecitabine),[3]; female Ces2^–/–V mice,1.2 ± 0.5^###^^^
same,Liver concentration ratio (metabolite/capecitabine),[3]; female Ces2^–/–V mice,0.44 ± 0.12
same,Small intestine concentration ratio (metabolite/capecitabine),[3]; female Ces2^–/–V mice,1.50 ± 0.56^###^^^
same,Small intestine contents concentration ratio (metabolite/capecitabine),[3]; female Ces2^–/–V mice,0.060 ± 0.024
same,CSI (small intestine tissue concentration),[3]; female wild-type mice,2119 ± 460 ng/g
same,CSIC (small intestine contents concentration),[3]; female wild-type mice,1759 ± 941 ng/g
same,Ccolon (colon concentration),[3]; female wild-type mice,2694 ± 755 ng/g
same,Cliver (liver concentration),[3]; female wild-type mice,1750 ± 637 ng/g
same,Colon concentration ratio (metabolite/capecitabine),[3]; female wild-type mice,1.2 ± 0.3
same,Liver concentration ratio (metabolite/capecitabine),[3]; female wild-type mice,1.60 ± 0.96
same,Small intestine concentration ratio (metabolite/capecitabine),[3]; female wild-type mice,1.50 ± 0.62
same,Small intestine contents concentration ratio (metabolite/capecitabine),[3]; female wild-type mice,0.077 ± 0.032
